From PMC3059195 (Journal of medicinal chemistry, 2010)
Like-named read-outs stand apart in the source and are kept apart here.

Tests used:
[1] = tested on: PPC-1 xenograft tumors; details: for tumor response compared with control group in first week: i.p. three times in first week at 50 mg/kg
[2] = tested on: B6-Bcl-2 transgenic mice (B-cells overexpress human Bcl-2); assay: B6-Bcl-2 transgenic mouse spleen weight study; details: for tolerability / toxicity of treated mice: 60 μmol/kg i.p., single injection; for in vivo activity compared to 6a: dose of 60 μmol/kg (Figure 3A); for tolerability of treated mice: i.p. at 30 μmol/kg
[3] = In vitro plasma stability; assay type: in vitro ADME
[4] = administered orally; cited from earlier work
[5] = tested on: primary CLL cells; assay: Annexin-V apoptosis assay, primary CLL cells; assay type: cell-based, human; details: one day Annexin-V apoptosis assay
[6] = tested on: B6-Bcl-2 transgenic mice (B-cells overexpress human Bcl-2); details: ip, 60 umol/kg
[7] = target: Bcl-XL (Homo sapiens, UniProt Q07817); assay: 2D [15N,1H]-HSQC binding to 15N-labeled Bcl-XL; details: ligand/protein ratio of 1:1
[8] = target: GST–Bcl-XL ΔTM protein (Homo sapiens, UniProt Q07817); assay: Fluorescence polarization assay; assay type: binding
[9] = tested on: BP3 cell line; assay: Annexin V-FITC and propidium iodide apoptosis assay, BP3

Sequence of Bcl-XL (Q07817 whole entry): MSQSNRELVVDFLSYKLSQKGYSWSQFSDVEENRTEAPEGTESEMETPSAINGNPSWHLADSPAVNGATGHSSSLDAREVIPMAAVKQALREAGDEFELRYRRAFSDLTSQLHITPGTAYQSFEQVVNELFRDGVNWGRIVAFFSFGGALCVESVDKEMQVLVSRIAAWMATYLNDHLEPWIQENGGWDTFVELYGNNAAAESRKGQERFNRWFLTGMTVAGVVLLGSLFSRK
Sequence of GST–Bcl-XL ΔTM protein (Q07817 1-211 limits assumed, stated change not applied): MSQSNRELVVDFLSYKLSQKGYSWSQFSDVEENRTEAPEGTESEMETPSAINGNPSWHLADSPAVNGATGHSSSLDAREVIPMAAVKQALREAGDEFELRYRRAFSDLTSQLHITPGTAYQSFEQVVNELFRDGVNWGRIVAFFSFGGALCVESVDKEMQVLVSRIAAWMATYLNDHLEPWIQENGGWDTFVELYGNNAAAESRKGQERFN

Cc1cc2c(C(C)C)c(O)c(O)c(C=O)c2c(O)c1-c1c(C)cc2c(C(C)C)c(O)c(O)c(C=O)c2c1O [Compound 1, 1,1′,6,6′,7,7′-Hexahydroxy-5,5′-diisopropyl-3,3′-dimethyl-2,2′-binaphthyl-8,8′-dicarboxaldehyde]
survival of treated mice in first week ([1]; 25 mg/kg, i.p.): died

CC1=C(C2=C(C)C(=O)c3c(cc(O)c(O)c3C(C)C)C2=O)C(=O)c2cc(O)c(O)c(C(C)C)c2C1=O [Compound 6a, 6,6′,7,7′-tetrahydroxy-5,5′-diisopropyl-3,3′-dimethyl-2,2′-binaphthyl-1,1′,4,4′-tetraone]
weight loss in first week ([1]; 50 mg/kg i.p. three times in first week): ~ 5% | tumor response compared with control group in first week [1]: strong tumor regression | percent of maximum reduction in spleen weight (biological activity) ([2]; 60 μmol/kg ip, maximum spleen shrinkage no more than 50%): 40% | degraded after 1 h incubation in rat plasma preparations (second statement) [3]: 23% | maximum tolerated dose (MTD) [4]: above 240 mg/kg | LD50 primary CLL sample (first of two, Figure 2D) [5]: > 30 µM | LD50 primary CLL sample (second of two, Supplementary 3B) [5]: > 30 µM | LD50 primary CLL samples (Supplementary Figure 3A) [5]: > 30 µM

CC1=C(C2=C(C)C(=O)c3c(cc(O)c(O)c3CC(C)C)C2=O)C(=O)c2cc(O)c(O)c(CC(C)C)c2C1=O [Compound 6b, 6,6′,7,7′-tetrahydroxy-5,5′-diisobutyl-3,3′-dimethyl-2,2′-binaphthyl-1,1′,4,4′-tetraone]
tolerability / toxicity of treated mice [2]: no observed toxicity | in vivo activity compared to 6a [2]: superior | percent of maximum reduction in spleen weight (biological activity) [6]: 60-80% | spleen weight reduction [6]: 30-40%

CC1=C(C2=C(C)C(=O)c3c(cc(O)c(O)c3CC3CCCC3)C2=O)C(=O)c2cc(O)c(O)c(CC3CCCC3)c2C1=O [Compound 6c, 5,5′-bis(cyclopentylmethyl)-6,6′,7,7′-tetrahydroxy-3,3′-dimethyl-2,2′-binaphthyl-1,1′,4,4′-tetraone]
LD50 primary CLL samples (Supplementary Figure 3A) [5]: 6.5 µM

CC1=C(C2=C(C)C(=O)c3c(cc(O)c(O)c3CCC3CCCCC3)C2=O)C(=O)c2cc(O)c(O)c(CCC3CCCCC3)c2C1=O [Compound 6d, 5,5′-bis(2-cyclohexylethyl)-6,6′,7,7′-tetrahydroxy-3,3′-dimethyl-2,2′-binaphthyl-1,1′,4,4′-tetraone]
tolerability / toxicity of treated mice [2]: no observed toxicity | in vivo activity compared to 6a [2]: superior

CC1=C(C2=C(C)C(=O)c3c(cc(O)c(O)c3CCc3ccc(C)cc3)C2=O)C(=O)c2cc(O)c(O)c(CCc3ccc(C)cc3)c2C1=O [Compound 6f, 6,6′,7,7′-tetrahydroxy-3,3′-dimethyl-5,5′-bis(4-methylphenethyl)-2,2′-binaphthyl-1,1′,4,4′-tetraone]
tumor response compared with control group in first week [1]: strong tumor regression | tolerability / toxicity of treated mice [2]: no observed toxicity | in vivo activity compared to 6a [2]: superior | signs of toxicity ([2]; groups of seven mice, 60 μmol/kg): no evident signs of toxicity | degraded after 1 h incubation in rat plasma preparations (second statement) [3]: 14% | binding to Bcl-XL by 2D [15N,1H]-HSQC, qualitative [7]: strong binding | LD50 primary CLL sample (second of two, Supplementary 3B) [5]: 15 µM

CC1=C(C2=C(C)C(=O)c3c(cc(O)c(O)c3Cc3ccccc3)C2=O)C(=O)c2cc(O)c(O)c(Cc3ccccc3)c2C1=O [Compound 6i, 5,5′-dibenzyl-6,6′,7,7′-tetrahydroxy-3,3′-dimethyl-2,2′-binaphthyl-1,1′,4,4′-tetraone]
survival of treated mice in first week ([1]; mouse, in vivo): died | tolerability / toxicity of treated mice [2]: died | tolerability of treated mice [2]: well tolerated | degraded after 1 h incubation in rat plasma preparations (second statement) [3]: 5% | binding to Bcl-XL by 2D [15N,1H]-HSQC, qualitative [7]: strong binding

CC1=C(C2=C(C)C(=O)c3c(cc(O)c(O)c3Cc3ccc(Cl)cc3)C2=O)C(=O)c2cc(O)c(O)c(Cc3ccc(Cl)cc3)c2C1=O [Compound 6l, 5,5′-bis(4-chlorobenzyl)-6,6′,7,7′-tetrahydroxy-3,3′-dimethyl-2,2′-binaphthyl-1,1′,4,4′-tetraone]
tolerability / toxicity of treated mice [2]: died | tolerability of treated mice [2]: well tolerated

CC1=C(C2=C(C)C(=O)c3c(cc(O)c(O)c3Cc3ccc(-c4ccccc4)cc3)C2=O)C(=O)c2cc(O)c(O)c(Cc3ccc(-c4ccccc4)cc3)c2C1=O [Compound 6m, 5,5′-bis(biphenyl-4-ylmethyl)-6,6′,7,7′-tetrahydroxy-3,3′-dimethyl-2,2′-binaphthyl-1,1′,4,4′-tetraone]
IC50 [8]: 160 to 630 nM

CC1=C(C2=C(C)C(=O)c3c(cc(O)c(O)c3C(=O)NCC(C)c3ccccc3)C2=O)C(=O)c2cc(O)c(O)c(C(=O)NCC(C)c3ccccc3)c2C1=O (stereo not shown) [Compound 8a, 6,6′,7,7′-Tetrahydroxy-3,3′-dimethyl-1,1′,4,4′-tetraoxo-N^5,N^5′-bis(2-phenylpropyl)-1,1′,4,4′-tetrahydro-2,2′-binaphthyl-5,5′-dicarboxamide]
tolerability / toxicity of treated mice [2]: died | binding to Bcl-XL by 2D [15N,1H]-HSQC, qualitative [7]: strong binding

ABT-737
cytotoxic activity against BP3 cell lines [9]: no cytotoxic activity
